The record followed here is patent US11844822B2, “Solid formulation and method for preventing or reducing coloration thereof” (Elobix AB, priority 2014, dated 2023).

The nature of this series: Storage coloration test of Elobixibat, additive and their mixtures (visual observation). Type of series: physicochemical. The text has this:
1,1-dioxo-3,3-dibutyl-5-phenyl-7-methylthio-8-(N—{(R)-1′-phenyl-1′-[N′-(carboxymethyl)carbamoyl]methyl}carbamoylmethoxy)-2,3,4,5-tetrahydro-1,5-benzothiazepine (Elobixibat) and an additive shown in Table 1 were mixed so that they have a volume ratio of 1:1 based on visual quantities, and thereby, the mixtures according to Reference Examples 3 to 9 were obtained. […] The mixture of each of Reference Examples 3 to 9, only Elobixibat as Reference Example 1, and only Macrogol (polyethylene glycol) 6000 as Reference Example 2 were independently stored in an aluminum bag as an airtight container for 2 weeks under the conditions of 60° C. and 75% relative humidity. After storage, the presence or absence of coloration of the materials of Reference Examples 1 and 2 and the mixtures according to Reference Examples 3 to 9 was visually observed.

`CCCCC1(CCCC)CN(c2ccccc2)c2cc(SC)c(OCC(=O)N[C@@H](C(=O)NCC(=O)O)c3ccccc3)cc2S(=O)(=O)C1` [Reference Example 1, 1,1-dioxo-3,3-dibutyl-5-phenyl-7-methylthio-8-(N—{(R)-1′-phenyl-1′-[N′-(carboxymethyl)carbamoyl]methyl}carbamoylmethoxy)-2,3,4,5-tetrahydro-1,5-benzothiazepine]: for the setting “colour before and after 2 weeks at 60° C. and 75% relative humidity in aluminum bag”, the “Coloration after storage: Before storage → after storage” value is listed as “white → white”. Further, the Coloration after storage result (stored in aluminum bag (airtight container) for 2 weeks at 60° C. and 75% relative humidity, visually observed) is listed as “Not observed”.
